Measured values published in US20220041613A1, “TYROSINE KINASE INHIBITOR COMPOSITIONS, METHODS OF MAKING AND METHODS OF USE” (Black Diamond Therapeutics, Inc., priority 2018, published 2022).
Entries after “also recorded” stand apart in the source; their conditions may differ. Read-outs that look alike come from different tables or passages of the source.

Experiments:
EGFR WT = molecular target: T1, EGFR WT (Homo sapiens, UniProt P00533); test: Assay for cell proliferation (CellTiterGlo), Activity for Inhibiting EGFR; type: cell-based; settings: potency code, 3 days drug
T1 construct: endogenous in cells; host or cells: A431 (+H292)

EGFR NPH = molecular target: T2, EGFR NPH (Homo sapiens, UniProt P00533, INS773NPH); test: Assay for cell proliferation (BaF3 transformants, CellTiterGlo), Activity for Inhibiting EGFR; type: cell-based; settings: potency code, 3 days drug
T2 construct: expressed in transfected cells; host or cells: BaF3 (murine pro-B), retroviral pMXs-IRES-Blasticidin, selected for IL-3 independence
Procedure: (§1) Retroviral Production: EGFR mutants were subcloned into pMXs-IRES-Blasticidin (RTV-016, Cell Biolabs, San Diego, Calif.). Retroviral expression vector retrovirus was produced by transient transfection of HEK 293T cells with the retroviral EGFR mutant expression vector pMXs-IRES-Blasticidin (RTV-016, Cell Biolabs), pCMV-Gag-Pol vector and pCMV-VSV-G-Envelope vector. HEK 293T/17 cells were plated in 100 mm collagen coated plate (354450, Corning Life Sciences, Tewksbury, Mass.) (4×10^5 per plate) and incubated overnight. The next day, retroviral plasmids (3 μg of EGFR mutant, 1.0 μg of pCMV-Gag-Pol and 0.5 μg pCMV-VSV-G) were mixed in 500 μl of Optimem (31985, Life Technologies). The mixture was incubated at room temperature for 5 min and then added to Optimem containing transfection reagent Lipofectamine (11668, Invitrogen) and incubated for 20 minutes. Mixture was then added dropwise to HEK 293T cells. The next day the medium was replaced with fresh culture medium and retrovirus was harvested @ 24 and 48 hrs. Generation of EGFR mutant stable cell lines: BaF3 cells (1.5E5 cells) were infected with 1 ml of viral supernatant supplemented with 8 μg/ml polybrene by centrifuging for 30 min at 1000 rpm. Cells were placed in a 37° C. incubator overnight. Cells were then spun for 5 minutes to pellet the cells. Supernatant was removed and cells re-infected a fresh 1 ml of viral supernatant supplemented with 8 μg/ml polybrene by centrifuging for 30 min at 1000 rpm. Cells were placed in 37° C. incubator overnight. […] After 48 hours cells were selected for retroviral infection in 10 μg/ml Blasticidin for one week. Blasticidin resistant populations were washed twice in phosphate buffered saline before plating in media lacking IL-3 to select for IL-3 independent growth.
as §1, with “fresh 1 m1 of viral” for “fresh 1 ml of viral”

EGFR SVD = molecular target: T3, EGFR SVD (Homo sapiens, UniProt P00533, INS770SVD); test: as above; type: cell-based; settings: potency code, 3 days drug
T3 construct: expressed in transfected cells; host or cells: BaF3 (murine pro-B), retroviral pMXs-IRES-Blasticidin, selected for IL-3 independence
Procedure: as §1
as §1, with “fresh 1 m1 of viral” for “fresh 1 ml of viral”

EGFR V3 (EGFR-Viii) = molecular target: T4, EGFR V3 (EGFR-Viii) (Homo sapiens, UniProt P00533, DELINS30-297G); test: as above; type: cell-based; settings: potency code, 3 days drug
T4 construct: expressed in transfected cells; host or cells: BaF3 (murine pro-B), retroviral pMXs-IRES-Blasticidin, selected for IL-3 independence
Procedure: as §1
as §1, with “fresh 1 m1 of viral” for “fresh 1 ml of viral”

HER2 WT = molecular target: T5, HER2 WT (Homo sapiens, UniProt P04626); test: Assay for cell proliferation (CellTiterGlo), Activity for Inhibiting HER2; type: cell-based
T5 construct: endogenous in cells; host or cells: BT474

HER2 S310F = molecular target: T6, HER2 S310F (Homo sapiens, UniProt P04626, S310F); test: Assay for cell proliferation (BaF3 transformants, CellTiterGlo), Activity for Inhibiting HER2; type: cell-based; settings: potency code, 3 days drug
T6 construct: expressed in transfected cells; host or cells: BaF3 (murine pro-B) transformants

HER2 YVMA = molecular target: T7, HER2 YVMA (Homo sapiens, UniProt P04626, INS775YVMA); test: as above; type: cell-based; settings: potency code, 3 days drug
T7 construct: expressed in transfected cells; host or cells: BaF3 (murine pro-B) transformants

HER2 S310F BaF3 tumors = test: Treatment of mice bearing HER2 mutant tumors, pHER2 and pERK via AlphaLisa; type: in vivo, Athymic nude mice; settings: 15 mg/kg oral, two day acute dosing; at peak plasma levels
Procedure: Following the second dose, tumors were collected at 2 hours, 5 hours, 12 hours and 24 hours, and analyzed for both pHER2 activity and pERK activity via AlphaLisa. Plasma was also collected at these time points and analayzed for the presence of Compound No. 3 to determine pharmacokinetic profile. The tumor tissue was cut and homogenized using the Precellys Soft Tissue Homogenizing kit (KT03961-1-00.3.2) containing T-PER tissue protein extraction reagent (Thermo Scientific #78510), supplemented with Protease Inhibitor (Sigma P8340), and Phosphatase Inhibitors II and III (Sigma P5726 and P0044). Tissue samples were homogenized in the Precellys machine by spinning two times for one minute each. Sample tubes were centrifuged for 5 min at 15,000 rpm at 4° C. The supernatant was transferred to a fresh microtube and spun again for 5 minutes at 15,000 rpm at 4° C. Supernatant was then transferred to a fresh microtube and placed on ice. The protein concentration of the supernatant was measured using the BCA reagent Kit (Thermo Scientific #23225). Tumor tissue-derived lysates were analyzed for either HER2 activity or EGFR activity by detection of pHER2 (Tyr1221/1222) or pERK (Thr202/Tyr204) phosphosites, respectively, via AlphaLisa. […]

[1] = tested on: HER2-Δ16, HER2-C311R, HER2-S310F, HER4Δ16; test: Western blot under non-reducing conditions: monomeric and dimeric HER2 and HER4 levels; type: cell-based, Homo sapiens
Procedure: Monomeric and dimeric HER2 and HER4 levels were detected by resolving proteins under non-reducing conditions.
Monomeric and dimeric HER2 and HRE4 levels were detected by resolving proteins under non-reducing conditions.
Protein immunodetection was performed by electrophoretic transfer of SDS-PAGE separated proteins to nitrocellulose, incubation with antibody, and chemiluminescent second step detection. Nitrocellulose membranes were blocked with 5% nonfat dry milk in TBS and incubated overnight with primary antibody in 5% bovine serum albumin. […] Horseradish peroxidase-conjugated secondary antibodies were obtained from Cell Signaling Technology and used at 1:5000 dilution. Horseradish peroxidase-conjugated secondary antibodies were incubated in nonfat dry milk for 1 hour. SuperSignal chemiluminescent reagent (Pierce Biotechnology) was used according to the manufacturer's directions and blots were imaged using the Alpha Innotech image analyzer and AlphaEaseFC software (Alpha Innotech, San Leandro Calif.).

BaF3-HER2-Δ16 cells = test: Proliferation of BaF3-HER2-Δ16 cells; settings: sub-saturating concentrations
Procedure: Assay for cell proliferation: BaF3 cell lines were resuspended at 1.3E5 c/ml in RPMI containing 10% Heat Inactivated FBS, 2% L-glutamine and 1% Pen/Strep and dispensed in triplicate (17.5E4 c/well) into 96 well plates. To determine the effect of drug on cell proliferation, cells incubated for 3 days in the presence of vehicle control or test drug at varying concentrations. Inhibition of cell growth was determined by luminescent quantification of intracellular ATP content using CellTiterGilo (Promega), according to the protocol provided by the manufacturer. Comparison of cell number on day 0 versus 72 hours post drug treatment was used to plot dose-response curves. The number of viable cells was determined and normalized to vehicle-treated controls. […] EC50 values were determined with the same application.

T5 sequence (P04626 23-1255): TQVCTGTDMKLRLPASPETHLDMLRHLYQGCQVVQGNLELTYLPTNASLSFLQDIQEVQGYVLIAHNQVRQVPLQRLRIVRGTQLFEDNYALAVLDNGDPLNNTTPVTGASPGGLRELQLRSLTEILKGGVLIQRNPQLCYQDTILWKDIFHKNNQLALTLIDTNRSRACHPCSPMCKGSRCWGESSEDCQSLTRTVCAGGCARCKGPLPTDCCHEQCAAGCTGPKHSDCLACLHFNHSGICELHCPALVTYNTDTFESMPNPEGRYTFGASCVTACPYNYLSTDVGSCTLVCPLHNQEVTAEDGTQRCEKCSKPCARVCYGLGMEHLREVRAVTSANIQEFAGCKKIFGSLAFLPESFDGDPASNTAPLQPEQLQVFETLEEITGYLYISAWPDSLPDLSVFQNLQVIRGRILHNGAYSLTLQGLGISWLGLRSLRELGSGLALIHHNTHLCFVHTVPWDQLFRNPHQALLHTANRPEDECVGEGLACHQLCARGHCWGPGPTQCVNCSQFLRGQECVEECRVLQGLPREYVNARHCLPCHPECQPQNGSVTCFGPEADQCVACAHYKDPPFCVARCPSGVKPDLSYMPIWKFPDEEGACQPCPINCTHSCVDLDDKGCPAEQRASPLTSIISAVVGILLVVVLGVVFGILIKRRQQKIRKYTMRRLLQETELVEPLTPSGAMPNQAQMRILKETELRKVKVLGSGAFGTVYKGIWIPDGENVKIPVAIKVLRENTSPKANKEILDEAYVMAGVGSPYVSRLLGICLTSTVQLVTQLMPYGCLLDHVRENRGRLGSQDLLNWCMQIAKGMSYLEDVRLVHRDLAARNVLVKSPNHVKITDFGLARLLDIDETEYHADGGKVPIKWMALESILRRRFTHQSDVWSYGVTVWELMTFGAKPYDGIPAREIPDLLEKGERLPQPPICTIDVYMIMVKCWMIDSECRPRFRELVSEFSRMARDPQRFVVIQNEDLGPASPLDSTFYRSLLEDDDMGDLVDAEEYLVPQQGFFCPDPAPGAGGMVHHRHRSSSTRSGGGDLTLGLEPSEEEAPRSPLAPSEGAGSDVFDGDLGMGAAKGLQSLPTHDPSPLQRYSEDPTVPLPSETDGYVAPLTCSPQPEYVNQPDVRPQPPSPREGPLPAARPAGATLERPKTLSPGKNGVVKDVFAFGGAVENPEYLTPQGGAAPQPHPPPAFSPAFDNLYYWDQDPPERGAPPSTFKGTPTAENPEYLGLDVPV
T7 sequence (P04626 with tags, fused parts or gaps INS775YVMA): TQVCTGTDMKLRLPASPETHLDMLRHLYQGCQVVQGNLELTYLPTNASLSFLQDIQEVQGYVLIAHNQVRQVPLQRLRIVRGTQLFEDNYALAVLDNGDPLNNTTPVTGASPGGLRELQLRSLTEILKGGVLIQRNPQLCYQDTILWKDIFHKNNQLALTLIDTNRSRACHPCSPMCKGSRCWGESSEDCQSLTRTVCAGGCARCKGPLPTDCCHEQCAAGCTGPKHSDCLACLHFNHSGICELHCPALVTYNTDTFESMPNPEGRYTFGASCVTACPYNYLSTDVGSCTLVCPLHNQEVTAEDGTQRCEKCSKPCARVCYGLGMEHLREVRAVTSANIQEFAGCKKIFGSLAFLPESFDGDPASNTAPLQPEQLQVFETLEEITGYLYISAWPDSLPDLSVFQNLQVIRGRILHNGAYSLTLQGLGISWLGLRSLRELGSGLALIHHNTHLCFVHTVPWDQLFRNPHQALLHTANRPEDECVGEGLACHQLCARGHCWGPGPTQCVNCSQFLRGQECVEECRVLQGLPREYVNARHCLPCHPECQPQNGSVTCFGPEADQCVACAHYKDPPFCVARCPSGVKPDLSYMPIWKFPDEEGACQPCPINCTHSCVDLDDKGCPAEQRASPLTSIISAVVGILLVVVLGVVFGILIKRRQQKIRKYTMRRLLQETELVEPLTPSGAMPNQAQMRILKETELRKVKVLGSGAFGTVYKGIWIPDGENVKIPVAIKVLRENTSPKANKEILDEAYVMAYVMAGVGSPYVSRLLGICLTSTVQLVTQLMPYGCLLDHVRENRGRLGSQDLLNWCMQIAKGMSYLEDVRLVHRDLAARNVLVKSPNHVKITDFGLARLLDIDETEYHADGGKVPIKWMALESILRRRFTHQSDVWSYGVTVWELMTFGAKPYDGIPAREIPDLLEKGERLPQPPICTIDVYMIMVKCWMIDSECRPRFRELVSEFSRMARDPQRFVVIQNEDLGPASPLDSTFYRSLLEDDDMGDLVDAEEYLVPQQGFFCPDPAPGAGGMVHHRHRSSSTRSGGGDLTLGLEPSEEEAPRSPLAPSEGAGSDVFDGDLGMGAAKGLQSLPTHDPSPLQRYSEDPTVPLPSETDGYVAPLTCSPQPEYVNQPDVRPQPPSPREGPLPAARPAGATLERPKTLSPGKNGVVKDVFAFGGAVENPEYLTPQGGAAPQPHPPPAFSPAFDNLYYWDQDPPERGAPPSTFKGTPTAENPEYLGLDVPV
T4 sequence (P00533 with tags, fused parts or gaps DELINS30-297G): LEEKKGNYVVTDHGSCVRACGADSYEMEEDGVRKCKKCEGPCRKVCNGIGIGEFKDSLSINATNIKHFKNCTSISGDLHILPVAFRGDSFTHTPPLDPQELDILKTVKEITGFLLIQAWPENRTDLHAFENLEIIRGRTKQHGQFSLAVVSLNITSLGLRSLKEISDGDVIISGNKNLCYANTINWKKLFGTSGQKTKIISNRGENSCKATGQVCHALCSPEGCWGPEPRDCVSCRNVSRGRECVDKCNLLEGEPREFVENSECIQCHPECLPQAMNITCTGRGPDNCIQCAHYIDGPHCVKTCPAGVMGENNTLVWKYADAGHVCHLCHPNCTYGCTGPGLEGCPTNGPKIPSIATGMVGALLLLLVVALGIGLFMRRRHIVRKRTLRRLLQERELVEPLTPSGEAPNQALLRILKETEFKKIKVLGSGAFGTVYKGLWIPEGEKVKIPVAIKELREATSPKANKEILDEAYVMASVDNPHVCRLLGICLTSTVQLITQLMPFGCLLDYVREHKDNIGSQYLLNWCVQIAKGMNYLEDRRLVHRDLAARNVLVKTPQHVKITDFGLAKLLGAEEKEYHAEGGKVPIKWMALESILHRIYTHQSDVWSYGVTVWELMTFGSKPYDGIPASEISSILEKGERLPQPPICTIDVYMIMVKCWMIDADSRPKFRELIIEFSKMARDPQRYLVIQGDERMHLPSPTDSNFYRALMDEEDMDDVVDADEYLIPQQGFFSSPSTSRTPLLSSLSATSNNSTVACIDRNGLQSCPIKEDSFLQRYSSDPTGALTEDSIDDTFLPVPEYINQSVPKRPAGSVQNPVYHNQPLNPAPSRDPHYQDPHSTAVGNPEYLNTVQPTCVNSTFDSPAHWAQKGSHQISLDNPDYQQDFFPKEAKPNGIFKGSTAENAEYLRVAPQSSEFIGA
T1 sequence (P00533 25-1210): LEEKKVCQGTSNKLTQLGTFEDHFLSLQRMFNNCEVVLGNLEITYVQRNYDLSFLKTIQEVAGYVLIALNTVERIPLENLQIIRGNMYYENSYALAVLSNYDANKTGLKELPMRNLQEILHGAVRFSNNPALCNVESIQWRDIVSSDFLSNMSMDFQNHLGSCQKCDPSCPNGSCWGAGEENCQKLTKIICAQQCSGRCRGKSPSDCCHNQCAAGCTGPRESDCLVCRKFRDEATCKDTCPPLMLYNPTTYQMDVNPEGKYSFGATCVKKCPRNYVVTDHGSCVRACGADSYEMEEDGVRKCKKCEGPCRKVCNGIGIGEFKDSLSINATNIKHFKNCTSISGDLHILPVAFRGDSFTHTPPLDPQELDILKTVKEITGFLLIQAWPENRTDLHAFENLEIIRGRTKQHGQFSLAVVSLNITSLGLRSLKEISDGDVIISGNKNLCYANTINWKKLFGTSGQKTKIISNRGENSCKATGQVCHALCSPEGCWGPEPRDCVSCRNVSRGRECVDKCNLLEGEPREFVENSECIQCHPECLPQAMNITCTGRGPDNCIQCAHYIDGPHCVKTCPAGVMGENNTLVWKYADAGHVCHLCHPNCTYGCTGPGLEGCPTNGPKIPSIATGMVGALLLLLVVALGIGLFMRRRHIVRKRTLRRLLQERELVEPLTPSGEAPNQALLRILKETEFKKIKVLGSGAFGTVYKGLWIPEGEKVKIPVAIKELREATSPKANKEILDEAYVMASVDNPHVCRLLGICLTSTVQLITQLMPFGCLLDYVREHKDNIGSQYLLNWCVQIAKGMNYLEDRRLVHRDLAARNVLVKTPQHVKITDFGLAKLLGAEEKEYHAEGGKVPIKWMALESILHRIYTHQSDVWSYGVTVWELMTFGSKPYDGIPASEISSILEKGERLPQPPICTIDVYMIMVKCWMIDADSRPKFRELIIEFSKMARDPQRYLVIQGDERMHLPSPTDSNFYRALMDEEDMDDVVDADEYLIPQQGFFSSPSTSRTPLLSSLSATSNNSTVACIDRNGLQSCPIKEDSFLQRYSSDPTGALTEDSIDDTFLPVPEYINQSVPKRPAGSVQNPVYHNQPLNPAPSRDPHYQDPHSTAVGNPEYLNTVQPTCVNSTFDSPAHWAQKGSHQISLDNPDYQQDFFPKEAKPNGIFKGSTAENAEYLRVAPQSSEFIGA

| Compound | IC50 (EGFR WT; Table A (Example 2)) [nM] | IC50 (EGFR WT; Table A) [nM] | IC50 (EGFR NPH; Table A (Example 2)) [nM] | IC50 (EGFR NPH; Table A) [nM] | IC50 (EGFR SVD; Table A (Example 2)) [nM] | IC50 (EGFR SVD; Table A) [nM] | IC50 (EGFR V3 (EGFR-Viii); Table A (Example 2)) [nM] | IC50 (EGFR V3 (EGFR-Viii); Table A) [nM] | IC50 (HER2 WT; 'about ... or less', read-out: IC50 value for inhibiting wild-type HER2) [nM] | IC50 (HER2 WT; Table B (Example 2), potency code, 3 days drug, read-out: HER2 WT) [nM] | IC50 (HER2 WT; Table B, potency code, 3 days drug, read-out: HER2 WT) [nM] | IC50 (HER2 S310F; Table B (Example 2)) [nM] | IC50 (HER2 S310F; Table B) [nM] | IC50 (HER2 YVMA; Table B (Example 2)) [nM] | IC50 (HER2 YVMA; Table B) [nM] | pERK1/2 (Thr202/Tyr204) in tumors (HER2 S310F BaF3 tumors) | pHER2 (Tyr1221/1222) in tumors (HER2 S310F BaF3 tumors) | covalent dimers of HER2 and HER4 extracellular variants [1] | proliferation of BaF3-HER2-Δ16 cells (BaF3-HER2-Δ16 cells) |
| --- | --- | --- | --- | --- | --- | --- | --- | --- | --- | --- | --- | --- | --- | --- | --- | --- | --- | --- | --- |
| C=CC(=O)Nc1cc2c(Nc3ccc4c(cnn4Cc4cccc(F)c4)c3)ncnc2cc1OCCN1CCOCC1 [compound 3] | 200 to 300 | 200 to 300 | 10 to 20 | 10 to 20 | 10 to 20 | 10 to 20 | 10 to 20 | 10 to 20 | ≤ 6 | < 5 | < 5 | 5 to 10 | 5 to 10 | 20 to 30 | 20 to 30 | reduction | reduction | – | – |
| CNC(=O)CN1CCC(Oc2cc3c(Nc4cccc(Cl)c4F)ncnc3cc2OC)CC1 [sapitinib] | – | – | – | – | – | – | – | – | – | – | – | – | – | – | – | – | – | levels of covalent dimers increased; also recorded: induce the expression of covalent dimers; also recorded: induce the formation of covalent dimers; also recorded: dose dependent increase in covalently dimerized receptors | paradoxically stimulate the proliferation |
